Data from patent US6506775B1, “Substituted benzylaminopiperidine compounds” (Pfizer INC, priority 1995, dated 2003).

How the values were obtained:
[1] = test system: [Sar^9, Met(O2)^11]substance P-induced tapping; test: [Sar9, Met(O2)11]substance P-induced tapping test in gerbils; format: in vivo; details: repetitive hind paw tapping, Examples 3 and 5 compared with the corresponding no halosubstituted compounds
Protocol: The activity of the compounds of this invention against CNS disorders is determined in a [Sar^9, Met(O2)^11]substance P-induced tapping test in gerbils. More specifically, gerbils are lightly anesthetized with ether and the skull surface is exposed. [Sar^9, Met(O2)^11]substance P or vehicle (5 μl) are administered directly into the lateral ventricles via a 25 gauge needle inserted 3.5 mm below lambda. Following injection, gerbils are placed in 2 l beaker individually and monitored for repetitive hind paw tapping. Some compounds prepared in the following Examples were tested in accordance with these testing methods.

Row | melting point [°C] | Structure (SMILES) | activity against CNS disorders [1]
1 | 172 to 174 | CC(F)(F)c1ccc(OC(F)(F)F)c(CN[C@H]2CCCN[C@H]2c2ccccc2)c1.Cl.Cl | –
2 | 228 to 233 | COc1ccc(C(F)(F)F)cc1CN[C@H]1CCCN[C@H]1c1ccccc1.Cl.Cl [Example 3, (2S,3S)-3-(2-Methoxy-5-(trifluoromethyl)benzyl)amino-2-phenylpiperidine dihydrochloride] | unexpectedly improved activity against CNS disorders
3 | 190 to 197 | Cl.Cl.FC(F)(F)c1ccc(Oc2ccccc2)c(CN[C@H]2CCCN[C@H]2c2ccccc2)c1 | –
4 | 265 to 270 | COc1ccc(C(F)(C(F)(F)F)C(F)(F)F)cc1CN[C@H]1CCCN[C@H]1c1ccccc1.Cl.Cl | –
5 | 195 to 203 | Cl.Cl.Fc1ccc(C(F)(F)F)cc1CN[C@H]1CCCN[C@H]1c1ccccc1 | –
6 | 225 to 227 | COc1ccc(C(C)(C)C#CC(F)(F)F)cc1CN[C@H]1CCCN[C@H]1c1ccccc1.Cl.Cl | –
7 | 290 to 294 | COc1ccc(C(C(F)(F)F)C(F)(F)F)cc1CN[C@H]1CCCN[C@H]1c1ccccc1.Cl.Cl [Example 5, (2S,3S)-2-Phenyl-3-(5-(2,2,2-trifluoro-1-(trifluoromethyl)ethyl)-2-methoxybenzyl)aminopiperidine dihydrochloride] | unexpectedly improved activity against CNS disorders
